Active and inactive are the calls of the source. The rule behind the calls is not given here.

These results are taken from ChEMBL document CHEMBL3091447, “The effect of pyridyl substituents on the thermodynamics of porphyrin binding to G-quadruplex DNA” (Bioorg Med Chem, 2013).

The species named for experiment [1] is Homo sapiens. Kind of experiment: Binding affinity to WT 27-mer Bcl-2 G-quadruplex DNA (unknown origin) at 40 uM by electrospray ionization mass spectra analysis.
For experiment [2], the species on record is Homo sapiens. Kind of experiment: Binding affinity to WT 27-mer Bcl-2 G-quadruplex DNA (unknown origin) at 5 uM by isothermal titration calorimetric assay.
The species entered for experiment [3] is Homo sapiens. In words: Binding affinity to Bcl-2 G-quadruplex DNA (unknown origin) at compound/DNA ratio 2:1 by CD spectral analysis.
The species entered for experiment [4] is Homo sapiens. Kind of experiment: Binding affinity to WT 27-mer Bcl-2 G-quadruplex DNA (unknown origin) at compound/DNA ratio 1 to 4 by CD spectral analysis.

Consider `C[n+]1ccc(-c2c3nc(cc4ccc(cc5nc(cc6ccc2[nH]6)C=C5)[nH]4)C=C3)cc1`, for which the outcome in experiment [1] was inactive.

As to `C[n+]1ccc(-c2c3nc(cc4ccc([nH]4)c(-c4cc[n+](C)cc4)c4nc(cc5ccc2[nH]5)C=C4)C=C3)cc1`, the outcome in experiment [2], in experiment [1] and in experiment [3] was Active.

`C[n+]1ccc(-c2c3nc(c(-c4cc[n+](C)cc4)c4ccc([nH]4)c(-c4cc[n+](C)cc4)c4ccc([nH]4)c(-c4cc[n+](C)cc4)c4nc2C=C4)C=C3)cc1`: the outcome in experiment [3] was Active.

On to `C[n+]1ccc(-c2c3nc(c(-c4cc[n+](C)cc4)c4ccc([nH]4)c(-c4cc[n+](C)cc4)c4nc(cc5ccc2[nH]5)C=C4)C=C3)cc1`, for which the outcome in experiment [4], in experiment [2], in experiment [1] and in experiment [3] was Active.

Consider `C[n+]1ccc(-c2c3nc(cc4ccc(cc5nc(c(-c6cc[n+](C)cc6)c6ccc2[nH]6)C=C5)[nH]4)C=C3)cc1`, for which the result in experiment [1] was inactive.
